Test results: US20150105252A1, “SUBSTITUTED PYRAZOLES AS HERBICIDES” (E I DU PONT DE NEMOURS AND COMPANY, priority 2013, published 2015)

Tests used:
velvetleaf [1] = assay: Test A preemergence; format: in vivo, Abutilon theophrasti; conditions: 0 to 100 scale
In short: (§1)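 Visual injury rating, 0–100 (0 no effect, 100 complete control), vs untreated controls ~10 days after treatment in greenhouse. Pre: directed soil spray on seeded loam/sand. Post: 2–10 cm plants, 1–2 leaf stage. Formulation: non-phytotoxic solvent mix + surfactant.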

barnyardgrass [2] = assay: Test A postemergence; format: in vivo, Echinochloa crus-galli; conditions: Postemergence
In short: as §1

wheat [3] = assay: Test A preemergence; format: in vivo, Triticum aestivum; conditions: preemergence
In short: as §1

ducksalad = assay: Test C flooded paddy test; format: in vivo, Heteranthera limosa; conditions: Flood
Excerpt: (§2) At time of treatment, test pots were flooded to 3 cm above the soil surface, treated by application of test compounds directly to the paddy water, and then maintained at that water depth for the duration of the test. Treated plants and controls were maintained in a greenhouse for 13 to 15 days, after which time all species were compared to controls and visually evaluated. […] A dash (-) response means no test result.

rice = assay: Test C flooded paddy test; format: in vivo, Oryza sativa; conditions: Flood
Excerpt: as §2

corn [4] = assay: Test A preemergence; format: in vivo, Zea mays; conditions: 0 to 100 scale
In short: as §1

pigweed [5] = assay: Test A postemergence; format: in vivo, Amaranthus retroflexus
In short: as §1

morningglory [6] = assay: Test A postemergence; format: in vivo, Ipomoea spp.
In short: as §1

foxtail, giant [7] = assay: Test A postemergence; format: in vivo, Setaria faberii
In short: as §1

barnyardgrass [8] = assay: Test C flooded paddy test; format: in vivo, Echinochloa crus-galli; conditions: Flood
Excerpt: as §2

barnyardgrass [9] = assay: Test A preemergence; format: in vivo, Echinochloa crus-galli; conditions: 0 to 100 scale
In short: as §1

pigweed [10] = assay: Test A preemergence; format: in vivo, Amaranthus retroflexus; conditions: 0 to 100 scale
In short: as §1

velvetleaf [11] = assay: Test A postemergence; format: in vivo, Abutilon theophrasti
In short: as §1

crabgrass, large [12] = assay: Test A preemergence; format: in vivo, Digitaria sanguinalis; conditions: 0 to 100 scale
In short: as §1

morningglory [13] = assay: Test A preemergence; format: in vivo, Ipomoea spp.; conditions: 0 to 100 scale
In short: as §1

sedge, umbrella = assay: Test C flooded paddy test; format: in vivo, Cyperus difformis; conditions: Flood
In short: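 Ratings were visual and made relative to untreated controls after 13 to 15 greenhouse days.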

foxtail, giant [14] = assay: Test A preemergence; format: in vivo, Setaria faberii; conditions: 0 to 100 scale
In short: as §1

corn [15] = assay: Test A postemergence; format: in vivo, Zea mays
In short: as §1

wheat [16] = assay: Test A postemergence; format: in vivo, Triticum aestivum
In short: as §1

crabgrass, large [17] = assay: Test A postemergence; format: in vivo, Digitaria sanguinalis
In short: as §1

[18] = Preemergence, 500 g ai/ha, 0 no effect, 100 complete control
[19] = preemergence, 125 g ai/ha, visual injury, approx. 10 days
[20] = 62 g ai/ha, scale 0 to 100 (0 no effect, 100 complete control)
[21] = Postemergence, 500 g ai/ha, visual rating after approx. 10 days, 0 to 100 scale (0 no effect, 100 complete control)
[22] = postemergence, 125 g ai/ha, about 10 days, visual rating on 0 to 100 scale (0 no effect, 100 complete control)

For `CCc1cc(C(=O)NOC(C)(C)CC)nn1Cc1cccc(OC(F)(F)F)c1` [Compound 71], the “Velvetleaf plant response rating” value (velvetleaf [1]; [18]) was 40, the “Velvetleaf plant response rating” value (velvetleaf [1]; [19]) was 30 and the “Barnyardgrass plant response rating” value (barnyardgrass [2]; 125 g ai/ha, 0 to 100 scale, 0 no effect, 100 complete control) was 30. For the same compound, the “Barnyardgrass plant response rating” value (barnyardgrass [2]; 500 g ai/ha, visual rating after approx. 10 days, 0 to 100 scale (0 no effect, 100 complete control)) was 70, the “Wheat plant response rating” value (wheat [3]; 125 g ai/ha, visual injury, 0 to 100 scale, approx. 10 days) was 0 and the “Wheat plant response rating” value (wheat [3]; 500 g ai/ha, visual injury after approx. 10 days, 0 to 100 scale (0 no effect, 100 complete control)) was 70. The “Plant response rating, Ducksalad” value (ducksalad; [20]) was 0, the “Plant response rating, Ducksalad” value (ducksalad; 125 g ai/ha, scale 0 to 100) was 0 and the “Plant response rating, Ducksalad” value (ducksalad; 250 g ai/ha, scale 0 to 100) was 0. The “Plant response rating, Rice” value (rice; [20]) was 0, the “Plant response rating, Rice” value (rice; 125 g ai/ha, scale 0 to 100) was 30 and the “Plant response rating, Rice” value (rice; 250 g ai/ha, scale 0 to 100) was 45. For the same compound, the “Corn plant response rating” value (corn [4]; [18]) was 10, the “Corn plant response rating” value (corn [4]; [19]) was 0 and the “Pigweed plant response rating” value (pigweed [5]; [21]) was 80. For the same compound, the “Pigweed plant response rating” value (pigweed [5]; [22]) was 40, the “Morningglory plant response rating” value (morningglory [6]; [21]) was 40 and the “Morningglory plant response rating” value (morningglory [6]; [22]) was 40. The “Foxtail, Giant plant response rating” value (foxtail, giant [7]; [21]) was 70, the “Foxtail, Giant plant response rating” value (foxtail, giant [7]; [22]) was 40 and the “Plant response rating, Barnyardgrass” value (barnyardgrass [8]; [20]) was 0. The “Plant response rating, Barnyardgrass” value (barnyardgrass [8]; 125 g ai/ha, scale 0 to 100) was 20, the “Plant response rating, Barnyardgrass” value (barnyardgrass [8]; 250 g ai/ha, scale 0 to 100) was 40 and the “Barnyardgrass plant response rating” value (barnyardgrass [9]; [18]) was 80. For the same compound, the “Barnyardgrass plant response rating” value (barnyardgrass [9]; [19]) was 60, the “Pigweed plant response rating” value (pigweed [10]; [18]) was 100 and the “Pigweed plant response rating” value (pigweed [10]; [19]) was 80. For the same compound, the “Velvetleaf plant response rating” value (velvetleaf [11]; [21]) was 100, the “Velvetleaf plant response rating” value (velvetleaf [11]; [22]) was 50 and the “Crabgrass, Large plant response rating” value (crabgrass, large [12]; [18]) was 100. For the same compound, the “Crabgrass, Large plant response rating” value (crabgrass, large [12]; [19]) was 90, the “Morningglory plant response rating” value (morningglory [13]; [18]) was 50 and the “Morningglory plant response rating” value (morningglory [13]; [19]) was 20. For the same compound, the “Plant response rating, Sedge, Umbrella” value (sedge, umbrella; [20]) was 70, the “Plant response rating, Sedge, Umbrella” value (sedge, umbrella; 125 g ai/ha, scale 0 to 100) was 75 and the “Plant response rating, Sedge, Umbrella” value (sedge, umbrella; 250 g ai/ha, scale 0 to 100) was 85. The “Foxtail, Giant plant response rating” value (foxtail, giant [14]; [18]) was 100, the “Foxtail, Giant plant response rating” value (foxtail, giant [14]; [19]) was 80 and the “Corn plant response rating” value (corn [15]; [21]) was 50. For the same compound, the “Corn plant response rating” value (corn [15]; [22]) was 30, the “Wheat plant response rating” value (wheat [16]; [21]) was 50 and the “Wheat plant response rating” value (wheat [16]; [22]) was 30. The “Crabgrass, Large plant response rating” value (crabgrass, large [17]; [21]) was 80 and the “Crabgrass, Large plant response rating” value (crabgrass, large [17]; [22]) was 40.
